From patent US20240197729A1, “ALK-5 Inhibitors and Uses Thereof” (Sumitomo Pharma Oncology, Inc., priority 2021, published 2024)

Key:
[1] = test system: TGF-β-induced pan-collagen expression; experiment: In vitro 3D liver fibrosis assay (HepaRG NP 3D model); format: cell-based; conditions: 1 μM, 100 ng/mL TGF-β1, 72 hours
Method: An additional fibrosis assay was carried out with selected compounds using the Visikol OpenLiver™ HepaRG™ NP 3D model directed at fibrosis. The OpenLiver™ HepaRG™ NP 3D model features the ability to recapitulate a number of liver disease pathologies. Whether evaluating the disease-inducing liability of a compound or exploring targets to exploit for therapeutic amelioration of disease state, the HepaRG™ NP 3D model is capable of recapitulating disease features such hepatocellular lipid accumulation, nonparenchymal cell phenotype shift, and collagen matrix deposition.
HepaRGs (Lonza, NSHPRG, Lot #HNS1013) and non-parenchymal (NP) cells (Stellates, Kupffers and LSECS (Lonza, Lot HUM201221)) were thawed, assessed for viability and seeded at a hepatocyte to NP cell ratio of 60:40 into an ultra-low attachment round-bottom plate (Corning, 4515). The cells were initially cultured in William's E medium supplemented with HepaRG Thaw, Plate & General Purpose Supplement (Thermo Fisher, HPRG770) and GlutaMax (Thermo Fisher, 35050061) overnight. The next day the medium was half exchanged with William's E medium supplemented with HepaRG Maintenance Supplement (Thermo Fisher, HPRG720) and GlutaMax (Thermo Fisher, 35050061). […]
Clearing the spheroid with Visikol HISTO-M™ allows for clear images throughout the spheroid volume, therefore allowing the entire z-stack to be analyzed. […]

[2] = test system: bleomycin-induced lung fibrosis; experiment: Bleomycin-induced lung fibrosis study; format: in vivo, mice; conditions: for formation of fibrosis, Masson's trichrome stained lung tissue: 25 or 50 mg/kg BID, responding animals; for Ashcroft score, group comparison to the bleomycin/vehicle group: all doses, five animals per group
Method: The most common animal model of pulmonary fibrosis is the bleomycin-induced lung fibrosis model in rodents. This model is commonly used to investigate biology and potential therapies for fibrotic diseases affecting the lung, such as idiopathic pulmonary fibrosis (IPF). Bleomycin, a cytotoxic drug, is administered to mice or rats and causes direct cell injury triggered by DNA strand breaks, which leads to an overproduction of reactive oxygen species causing inflammation, pulmonary toxicity, activation of fibroblasts and subsequent fibrosis. Fibrosis is hallmarked by aberrant activation of lung epithelial cells and accumulation of fibroblasts and myofibroblasts with excessive production of extracellular matrix such as collagen. To test the ability of Compound 01 and Compound 04 to reduce fibrosis in vivo, a bleomycin induced lung fibrosis model in mice was utilized and endpoints such as lung hydroxyproline levels, a surrogate marker of collagen and fibrosis, and histological scoring of fibrosis were performed.
For this study, male C57BL/6J mice approximately 6 to 7 weeks old (purchased from Charles River) were weighed on the day prior to study day 0 to establish a baseline. All study arms contained sixteen total animals, except the sham/vehicle group, which contained 10 animals. All animals, except the sham/vehicle group were dosed intranasally with 4 international units per kilogram bleomycin in the morning of day 1 of the study. Bleomycin was prepared in a solution of 0.9 percent sodium chloride. All drugs were prepared in 10 percent Tween 20. Starting in the evening on day 1 of the study, one dose of Compound 04 or Compound 01 was given at either twenty-five or fifty milligrams per kilogram per oral gavage. For all subsequent days of the twenty-one day study, animals were dosed twice a day per oral gavage with either twenty-five or fifty milligram per kilogram of Compound 04 or Compound 01. At day twenty-one, the lungs were harvested and either snap frozen or fixed in paraformaldehyde. The left lobe of the lungs was subjected to hydroxyproline quantification, which was used as a biomarker of fibrosis and total collagen. The remaining lung tissue was fixed in paraformaldehyde to be processed for histological examination following hematoxylin-eosin (H&E) and Masson trichrome staining. […]. Clinical observations were recorded daily.

Cc1nn(CC(F)(F)F)cc1Nc1cc(Nc2cnnc3c(C)cccc23)ccn1 [Compound 01, N2-[3-methyl-1-(2,2,2-trifluoroethyl)-1H-pyrazol-4-yl]-N4-(8-methylcinnolin-4-yl)pyridine-2,4-diamine]
TGF-β-induced pan-collagen expression [1]: inhibited TGF-β-induced pan-collagen expression
formation of fibrosis, Masson's trichrome stained lung tissue [2]: reduced the formation of fibrosis
Ashcroft score, group comparison to the bleomycin/vehicle group [2]: not statistically significant

Clc1cccc2c(Nc3ccnc(Nc4cccc(N5CCOCC5)c4)c3)cnnc12 [Compound 04, N4-(8-chlorocinnolin-4-yl)-N2-[3-(morpholin-4-yl)phenyl]pyridine-2,4-diamine]
TGF-β-induced pan-collagen expression [1]: inhibited TGF-β-induced pan-collagen expression
formation of fibrosis, Masson's trichrome stained lung tissue [2]: reduced the formation of fibrosis
Ashcroft score, group comparison to the bleomycin/vehicle group [2]: not statistically significant
